Laboratory results taken from patent US12685751B2, “Methods for gene modification of hematopoietic cells” (Centro de Investigaciones Energéticas, Medioambientales y …, priority 2018, dated 2026).

Experiments:
[1] = system: hematopoietic cells; experiment: CFC/CFU assay: percent transduction analysed in single colonies; type: cell-based
Description: “Transduction efficiency” refers to the percentage of cells transduced with at least one provirus copy. For example if 1×10^6 cells are exposed to a virus and 0.5×10^6 cells are determined to have a least one copy of a virus in their genome, then the transduction efficiency is 50%. An illustrative method for determining transduction efficiency is flow cytometry.
As used herein, “CFC” refers to colony forming cells. The colony forming cell (CFC) assay is used to study the proliferation and differentiation pattern of hematopoietic progenitors by their ability to form colonies in a semisolid medium. The number and the morphology of the colonies formed by a fixed number of input cells provide preliminary information about the ability of progenitors to differentiate and proliferate. Exemplary assays are provided in Sarma et al. Colony forming cell (CFC) assay for human hematopoietic cells. J Vis Exp. 2010 Dec. 18; (46). […]
(§1) In another experiment, cells were transduced with either 1×10^7 TU/mL or 1×10^8 TU/mL of lentiviral vector in liquid culture in the presence of PGE2, and assayed for VCN determination after 14 days in liquid culture (FIG. 2B). […] A colony forming units (CFUs) assay was performed with transduced cells (FIG. 3A, CFCs=colony-forming cells), and VCN and percent (%) transduction were analyzed in single colonies (FIGS. 3B and 3C). […]

[2] = system: hematopoietic cells; experiment: VCN determination after 14 days in liquid culture of cells transduced with lentiviral vector; type: cell-based; conditions: 4 μg/mL protamine sulfate in media, 14 days liquid culture
Description: “Vector copy number” or “VCN” refers to the number of copies of vector in a sample divided by the number of cells. Generally the number of copies of vector is determined by quantitative polymerase chain reaction (qPCR) using a probe against the Psi sequence of the integrated provirus, and the number of cells is determined by qPCR using a probe against a human housekeeping gene for which there will be two copies per cell (one per chromosome).
An illustrative protocol for transduction of hematopoietic cells with lentiviral vectors as performed in the examples that follow is provided in FIG. 1, although in various experiments described in the examples, the transduction media included no TE, a single TE, or various combinations of TEs. Pre-stimulation included culturing the cells on plates coated with 2 ug/cm^2 RetroNectin™ (RN). […]
as §1

[3] = system: CD34+ cells; conditions: ex vivo culture of CD34+ cells; Heffner et al. 2018; cited from earlier work

Structure (SMILES): CCCCC(C)(C)[C@H](O)/C=C/[C@H]1[C@H](O)CC(=O)[C@@H]1C/C=C\CCCC(=O)O
- percent (%) transduction, cells transduced ([1]; highest tested concentration of PGE2, single colonies, FIG. 3C): up to 75%
- percent (%) transduction, cells transduced ([1]; highest tested concentration, Example 2 (poloxamer F108 / LentiBOOST), FIG. 5C): up to 75%
- transduction efficiency as determined by VCN/cell ([2]; 1×10^7 or 1×10^8 TU/mL lentiviral vector, FIG. 2B): increased transduction efficiency
- transduction efficiency as measured by vector copy numbers/cell ([2]; PGE2 10, 30 or 50 μg/mL, 2.5×10^7 or 5×10^7 TU/mL VSVG-pseudotyped GFP LV, FIG. 2A): increase transduction efficiency
- level of lentiviral transgene delivery [3]: increase the level of lentiviral transgene delivery
